# Structures can show the parent of a compound that is named as a salt.
# Biological target: isolated recombinant JAK2 kinase domain (Homo sapiens (Human), UniProt O60674)
# Details: read-out: JAK2 Ki; isolated recombinant JAK2 kinase domain, 25 μM ATP
# Chain of isolated recombinant JAK2 kinase domain (O60674 849-1124): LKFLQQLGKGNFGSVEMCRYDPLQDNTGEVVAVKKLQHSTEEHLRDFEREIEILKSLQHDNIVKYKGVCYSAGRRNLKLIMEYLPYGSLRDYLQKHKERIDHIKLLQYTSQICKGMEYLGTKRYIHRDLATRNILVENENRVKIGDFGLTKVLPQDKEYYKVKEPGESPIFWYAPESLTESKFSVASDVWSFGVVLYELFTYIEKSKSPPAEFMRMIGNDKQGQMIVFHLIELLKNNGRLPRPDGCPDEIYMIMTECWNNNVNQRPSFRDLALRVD
row,Structure (SMILES),Ki [nM]
1,"CN1CCC(N(C)C(=O)c2ccc(Nc3nc4c(N5CCC(C)(c6ccccc6)CC5)cccn4n3)cc2)CC1 [Example 1-1, N-methyl-4-(8-(4-methyl-4-phenylpiperidin-1-yl)-[1,2,4]triazolo[1,5-a]pyridin-2-ylamino)-N-(1-methylpiperidin-4-yl)benzamide]",0.85
2,"CN1CCC(N(C)C(=O)c2ccc(Nc3nc4c(N5CCC(O)(C6CCCCC6)CC5)cccn4n3)cc2)CC1 [Example 1-2, 4-[[8-(4-cyclohexyl-4-hydroxy-1-piperidyl)-[1,2,4]triazolo[1,5-a]pyridin-2-yl]amino]-N-methyl-N-(1-methyl-4-piperidyl)benzamide]",14.2
3,"CN1CCC(N(C)C(=O)c2ccc(Nc3nc4c(N5CCC(O)CC5)cccn4n3)cc2)CC1 [Example 1-3, 4-[[8-(4-hydroxy-1-piperidyl)-[1,2,4]triazolo[1,5-a]pyridin-2-yl]amino]-N-methyl-N-(1-methyl-4-piperidyl)benzamide; hydrochloride]",92.4
4,"CN1CCC(N(C)C(=O)c2ccc(Nc3nc4c(N5CC=C(c6ccccc6)CC5)cccn4n3)cc2)CC1 [Example 1-4, N-methyl-N-(1-methyl-4-piperidyl)-4-[[8-(4-phenyl-3,6-dihydro-2H-pyridin-1-yl)-[1,2,4]triazolo[1,5-a]pyridin-2-yl]amino]benzamide]",12.4
5,"CN1CCC(N(C)C(=O)c2ccc(Nc3nc4c(N5CCC(C)(O)CC5)cccn4n3)cc2)CC1 [Example 1-6, 4-[[8-(4-hydroxy-4-methyl-1-piperidyl)-[1,2,4]triazolo[1,5-a]pyridin-2-yl]amino]-N-methyl-N-(1-methyl-4-piperidyl)benzamide; hydrochloride]",39.9
6,"CN1CCC(N(C)C(=O)c2ccc(Nc3nc4c(N5CCCC(O)(c6ccccc6)CC5)cccn4n3)cc2)CC1 (stereo not drawn) [Example 1-7, 4-[[8-(4-hydroxy-4-phenyl-azepan-1-yl)-[1,2,4]triazolo[1,5-a]pyridin-2-yl]amino]-N-methyl-N-(1-methyl-4-piperidyl)benzamide]",6.51
7,"CN1CCC(N(C)C(=O)c2ccc(Nc3nc4c(N5CCC=C(c6ccccc6)CC5)cccn4n3)cc2)CC1 [Example 1-14, N-methyl-N-(1-methyl-4-piperidyl)-4-[[8-(4-phenyl-2,3,6,7-tetrahydroazepin-1-yl)-[1,2,4]triazolo[1,5-a]pyridin-2-yl]amino]benzamide]",7.53
8,"CN1CCC(N(C)C(=O)c2ccc(Nc3nc4c(N5CC=C(c6ccccc6)CCC5)cccn4n3)cc2)CC1 [Example 1-15, N-methyl-N-(1-methyl-4-piperidyl)-4-[[8-(5-phenyl-2,3,4,7-tetrahydroazepin-1-yl)-[1,2,4]triazolo[1,5-a]pyridin-2-yl]amino]benzamide]",12.2
9,"CN1CCC(N(C)C(=O)c2ccc(Nc3nc4c(N5CCC(F)(c6ccccc6)CC5)cccn4n3)cc2)CC1 [Example 1-16, 4-[[8-(4-fluoro-4-phenyl-1-piperidyl)-[1,2,4]triazolo[1,5-a]pyridin-2-yl]amino]-N-methyl-N-(1-methyl-4-piperidyl)benzamide]",25.5
10,"CN1CCC(N(C)C(=O)c2ccc(Nc3nc4c(N5CCC(O)(c6cccc(Cl)c6)CC5)cccn4n3)cc2)CC1 [Example 1-18, 4-[[8-[4-(3-chlorophenyl)-4-hydroxy-1-piperidyl]-[1,2,4]triazolo[1,5-a]pyridin-2-yl]amino]-N-methyl-N-(1-methyl-4-piperidyl)benzamide]",17.3
11,"CN1CCC(N(C)C(=O)c2ccc(Nc3nc4c(N5CCC(O)(c6ccncc6)CC5)cccn4n3)cc2)CC1 [Example 1-20, 4-[[8-[4-hydroxy-4-(4-pyridyl)-1-piperidyl]-[1,2,4]triazolo[1,5-a]pyridin-2-yl]amino]-N-methyl-N-(1-methyl-4-piperidyl)benzamide]",36.8
12,"CN1CCC(N(C)C(=O)c2ccc(Nc3nc4c(N5CCC(O)(c6cccc(C#N)c6)CC5)cccn4n3)cc2)CC1 [Example 1-22, 4-[[8-[4-(3-cyanophenyl)-4-hydroxy-1-piperidyl]-[1,2,4]triazolo[1,5-a]pyridin-2-yl]amino]-N-methyl-N-(1-methyl-4-piperidyl)benzamide]",32.1
13,"CN1CCC(N(C)C(=O)c2ccc(Nc3nc4c(N5CCC6(CNC(=O)O6)C5)cccn4n3)cc2)CC1 (stereo not drawn) [Example 1-24, N-methyl-N-(1-methyl-4-piperidyl)-4-[[8-(2-oxo-1-oxa-3,7-diazaspiro[4.4]nonan-7-yl)-[1,2,4]triazolo[1,5-a]pyridin-2-yl]amino]benzamide]",19.1
14,"CN1CCC(N(C)C(=O)c2ccc(Nc3nc4c(N5CCN6CCOC[C@@H]6C5)cccn4n3)cc2)CC1 [Example 1-25, 4-[[8-[(9aS)-3,4,6,7,9,9a-hexahydro-1H-pyrazino[2,1-c][1,4]oxazin-8-yl]-[1,2,4]triazolo[1,5-a]pyridin-2-yl]amino]-N-methyl-N-(1-methyl-4-piperidyl)benzamide]",49.1
15,"CN1CCC(N(C)C(=O)c2ccc(Nc3nc4c(N5CCC6(CC5)CNC(=O)C6)cccn4n3)cc2)CC1 [Example 1-27, N-methyl-N-(1-methyl-4-piperidyl)-4-[[8-(3-oxo-2,8-diazaspiro[4.5]decan-8-yl)-[1,2,4]triazolo[1,5-a]pyridin-2-yl]amino]benzamide]",17.2
16,"CN1CCC(N(C)C(=O)c2ccc(Nc3nc4c(N5CCC6(CC5)CNC(=O)O6)cccn4n3)cc2)CC1 [Example 1-28, N-methyl-N-(1-methyl-4-piperidyl)-4-[[8-(2-oxo-1-oxa-3,8-diazaspiro[4.5]decan-8-yl)-[1,2,4]triazolo[1,5-a]pyridin-2-yl]amino]benzamide]",8.21
17,"CN1CCC(N(C)C(=O)c2ccc(Nc3nc4c(N5CCN6C(=O)NCCC6C5)cccn4n3)cc2)CC1 (stereo not drawn) [Example 1-31, N-methyl-N-(1-methyl-4-piperidyl)-4-[[8-(6-oxo-3,4,7,8,9,9a-hexahydro-1H-pyrazino[1,2-c]pyrimidin-2-yl)-[1,2,4]triazolo[1,5-a]pyridin-2-yl]amino]benzamide]",52.4
18,"CN1CCC(N(C)C(=O)c2ccc(Nc3nc4c(N5CCN6C(=O)COC[C@@H]6C5)cccn4n3)cc2)CC1 [Example 1-32, 4-[[8-[(9aS)-4-oxo-6,7,9,9a-tetrahydro-1H-pyrazino[2,1-c][1,4]oxazin-8-yl]-[1,2,4]triazolo[1,5-a]pyridin-2-yl]amino]-N-methyl-N-(1-methyl-4-piperidyl)benzamide]",28.8
19,"CN1CCC(N(C)C(=O)c2ccc(Nc3nc4c(N5CCN6C(=O)COC[C@H]6C5)cccn4n3)cc2)CC1 [Example 1-33, 4-[[8-[(9aR)-4-oxo-6,7,9,9a-tetrahydro-1H-pyrazino[2,1-c][1,4]oxazin-8-yl]-[1,2,4]triazolo[1,5-a]pyridin-2-yl]amino]-N-methyl-N-(1-methyl-4-piperidyl)benzamide]",38.7
20,"CN1CCC(N(C)C(=O)c2ccc(Nc3nc4c(N5CCC(O)(c6ccccc6Cl)CC5)cccn4n3)cc2)CC1 [Example 1-35, 4-[[8-[4-(2-chlorophenyl)-4-hydroxy-1-piperidyl]-[1,2,4]triazolo[1,5-a]pyridin-2-yl]amino]-N-methyl-N-(1-methyl-4-piperidyl)benzamide]",27.7
21,"Cc1ccc(C2(O)CCN(c3cccn4nc(Nc5ccc(C(=O)N(C)C6CCN(C)CC6)cc5)nc34)CC2)cc1 [Example 1-39, 4-[[8-[4-hydroxy-4-(p-tolyl)-1-piperidyl]-[1,2,4]triazolo[1,5-a]pyridin-2-yl]amino]-N-methyl-N-(1-methyl-4-piperidyl)benzamide]",3.52
